From patent US8993752B2, “Neprilysin inhibitors” (Theravance Biopharma R&D IP, LLC, priority 2011, dated 2015)

Target: T1, human NEP (Homo sapiens, UniProt P08473)
T1 construct: purchased R&D Systems, Minneapolis, Minn; 1182-ZN
Assay: In vitro enzyme inhibition assay at human NEP (fluorogenic peptide substrate)
Type: biochemical
Settings: recombinant human NEP; substrate Mca-D-Arg-Arg-Leu-Dap-(Dnp)-OH 10 μM; 37° C.; values given as ranges; read-out: pKi values at human NEP (converted)
In short: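 Recombinant human NEP pre-incubated 30 min at 37 °C with compound (10 μM to 20 pM), then 10 μM Mca-D-Arg-Arg-Leu-Dap-(Dnp)-OH in 50 mM HEPES pH 7.5, 100 mM NaCl, 0.01% Tween-20, 10 μM ZnSO4. Stopped after 20 min with acetic acid, fluorescence read at 320/405 nm; Ki from nonlinear fit, reported as pKi.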

T1 sequence (P08473 whole entry): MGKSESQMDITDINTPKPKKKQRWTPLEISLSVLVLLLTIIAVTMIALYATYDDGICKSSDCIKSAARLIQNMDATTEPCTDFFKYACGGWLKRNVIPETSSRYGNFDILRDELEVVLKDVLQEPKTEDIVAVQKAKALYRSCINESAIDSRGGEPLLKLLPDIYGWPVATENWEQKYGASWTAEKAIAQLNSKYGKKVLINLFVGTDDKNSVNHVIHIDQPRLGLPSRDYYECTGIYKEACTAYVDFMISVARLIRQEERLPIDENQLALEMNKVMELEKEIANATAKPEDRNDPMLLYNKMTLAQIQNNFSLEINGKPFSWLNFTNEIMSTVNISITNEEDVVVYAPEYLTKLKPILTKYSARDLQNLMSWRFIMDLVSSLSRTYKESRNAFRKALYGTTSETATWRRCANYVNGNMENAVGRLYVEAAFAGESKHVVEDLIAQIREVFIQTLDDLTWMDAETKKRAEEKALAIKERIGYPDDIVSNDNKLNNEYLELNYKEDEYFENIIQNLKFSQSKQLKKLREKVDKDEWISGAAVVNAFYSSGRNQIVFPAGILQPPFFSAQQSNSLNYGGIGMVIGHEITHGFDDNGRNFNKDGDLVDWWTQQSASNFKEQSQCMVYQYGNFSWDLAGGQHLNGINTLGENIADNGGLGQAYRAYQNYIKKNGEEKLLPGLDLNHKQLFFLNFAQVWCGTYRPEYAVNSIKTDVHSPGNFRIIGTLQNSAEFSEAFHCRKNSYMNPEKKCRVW

Row | Ki [µM] | SMILES
1 | 0.0126 to 0.1 | CN(C)C(=O)c1cc(C(=O)N[C@H](Cc2ccccc2)[C@@H](O)C(=O)O)nn1Cc1ccc(Cl)cc1 [Example 8-17, (2R,3R)-3-{[1-(4-Chloro-benzyl)-5-dimethylcarbamoyl-1H-pyrazole-3-carbonyl]-amino}-2-hydroxy-4-phenyl-butyric acid]
2 | 0.0126 to 0.1 | O=C(N[C@H](Cc1ccccc1)[C@@H](O)C(=O)O)c1cnn(-c2ccccn2)c1 [Example 9-1, (2R,3R)-2-Hydroxy-4-phenyl-3-[(1-pyridin-2-yl-1H-pyrazole-4-carbonyl)-amino]-butyric acid]
3 | 0.00126 to 0.01 | O=C(N[C@H](Cc1ccccc1C(F)(F)F)[C@@H](O)C(=O)O)c1cc(C(=O)O)[nH]n1 [Example 6-2, 5-[(1R,2R)-2-Carboxy-2-hydroxy-1-(2-trifluoromethyl-benzyl)-ethylcarbamoyl]-2H-pyrazole-3-carboxylic acid]
4 | ≤ 0.001 | COc1c(F)c(F)c(Cn2nc(C(=O)N[C@H](Cc3ccccc3)[C@@H](O)C(=O)O)cc2C2CC2)c(F)c1F [Example 8-22, (2R,3R)-3-{[5-Cyclopropyl-1-(2,3,5,6-tetrafluoro-4-methoxy-benzyl)-1H-pyrazole-3-carbonyl]-amino}-2-hydroxy-4-phenyl-butyric acid]
5 | 0.0126 to 0.1 | CCn1nc(C(=O)N[C@H](Cc2ccccc2)[C@@H](O)C(=O)O)cc1C(=O)O [Example 8-12, 5-((1R,2R)-1-Benzyl-2-carboxy-2-hydroxy-ethylcarbamoyl)-2-ethyl-2H-pyrazole-3-carboxylic acid]
6 | 0.00126 to 0.01 | O=C(O)C[C@@H](Cc1ccccc1Cl)NC(=O)c1cc(C(=O)O)n(Cc2cccc(Cl)c2)n1 [Example 10, 5-[(R)-2-Carboxy-1-(2-chlorobenzyl)-ethylcarbamoyl]-2-(3-chlorobenzyl)-2H-pyrazole-3-carboxylic Acid]
7 | 0.00126 to 0.01 | COc1ccc(Cn2nc(C(=O)N[C@H](Cc3ccccc3)[C@@H](O)C(=O)O)cc2C2CC2)c(F)c1F [Example 8-21, (2R,3R)-3-{[5-Cyclopropyl-1-(2,3-difluoro-4-methoxy-benzyl)-1H-pyrazole-3-carbonyl]-amino}-2-hydroxy-4-phenyl-butyric acid]
8 | 0.0126 to 0.1 | O=C(O)C[C@@H](Cc1ccccc1Cl)NC(=O)c1cc(C(=O)O)n(Cc2cccc(F)c2)n1 [Example 11-6, 5-[(R)-2-Carboxy-1-(2-chloro-benzyl)-ethylcarbamoyl]-2-(3-fluoro-benzyl)-2H-pyrazole-3-carboxylic acid]
9 | 0.0126 to 0.1 | CSc1ccc(Cn2nc(C(=O)N[C@H](Cc3ccccc3)[C@@H](O)C(=O)O)cc2C2CC2)cc1 [Example 8-23, (2R,3R)-3-{[5-Cyclopropyl-1-(4-methylsulfanyl-benzyl)-1H-pyrazole-3-carbonyl]-amino}-2-hydroxy-4-phenyl-butyric acid]
10 | 0.00126 to 0.01 | O=C(N[C@H](Cc1ccccc1Cl)[C@@H](O)C(=O)O)c1cc(C(=O)O)n(Cc2ccc(C(F)(F)F)cc2)n1 [Example 2-25, 5-[(1R,2R)-2-Carboxy-1-(2-chloro-benzyl)-2-hydroxy-ethylcarbamoyl]-2-(4-trifluoromethyl-benzyl)-2H-pyrazole-3-carboxylic acid]
